Measurements as given in patent US20150031734A1, “PHARMACEUTICAL COMPOSITION CONTAINING MIRABEGRON” (ASTELLAS PHARMA INC., priority 2012, published 2015).
≈ marks a conversion by molar mass, not a printed value.

What was measured:
[1] = Pharmacokinetics test (dogs), fasted and fed, Experimental Example 4; assay type: in vivo, male beagle dogs; details: for AUC0-10 h / Cmax: oral, 50 mg as mirabegron, plasma
Procedure: The rates of decrease of Cmax and AUC are calculated by the following equations:
Rd(Cmax)=[1−Cmax(Fed)/Cmax(Fasted)]×100
Rd(AUC)=[1−AUC(Fed)/AUC(Fasted)]×100
Rd(Cmax): Rate of decrease of Cmax (%) Cmax(Fed): Cmax in administration after food intake Cmax(Fasted): Cmax in administration in the fasted state Rd(AUC): Rate of decrease of AUC (%) AUC(Fed): AUC in administration after food intake AUC(Fasted): AUC in administration in the fasted state
The resulting suspension was orally administered to male beagle dogs using a sonde in a fasted state (Fasted) or after 30 minutes from the intake of a meal (Fed), and the drug concentration in the plasma was measured after predetermined periods of time. As the meal, 50 g of meat feed was used.

[2] = Stability of stored suspension by dissolution test, Experimental Example 5; assay type: physicochemical; details: vs before storage
Procedure: The expression “the dissolution or leakage of mirabegron is reduced or inhibited” as used herein means when the pharmaceutical composition of the present invention, which was dispersed in a solvent and has been stored, is subjected to a dissolution test in accordance with the dissolution test, method 2 (paddle method) described in the Japanese Pharmacopoeia, using 900 mL of an appropriate test solution (for example, the second fluid (JP2) described in the dissolution test of the Japanese Pharmacopoeia), for example, at a paddle rotation speed of 50-200 rpm, the change in dissolution rate is 15% or less at the maximum in comparison with the value before the storage. The change in dissolution rate is 10% or less in another embodiment, 5% or less in still another embodiment, and 3% or less in still another embodiment.
These bottles were allowed to stand in a cool place (5° C.) or under room temperature conditions for a month. The xanthan gum solution was prepared by adding xanthan gum to water at a concentration of 1 W/W % while stirring. After the storage, each suspension (25 mg as the amount of mirabegron) was used to carry out a dissolution test in accordance with the dissolution test, method 2 (paddle method) described in the Japanese Pharmacopoeia. As the test solution, 900 mL of the second fluid (JP2) described in the disintegration test of the Japanese Pharmacopoeia was used. […]

[3] = Drug concentration (solubility) in supernatant, Experimental Example 1; assay type: physicochemical; details: shaken at room temperature for 24 hours, 150 mg as mirabegron; for solubility thermodynamic at 24 h: thermodynamic from solid
Procedure: The drug concentration (solubility) of each compound to be assayed was measured in accordance with the following method.
After the shaking, the mixtures were centrifuged at 3000 rpm for 15 minutes, and the drug concentration in each supernatant was measured.

[4] = Dissolution test, paddle method, JP2, 50 rpm, Experimental Example 3; assay type: physicochemical; details: 900 mL JP2, paddle 50 rpm
Procedure: The acid addition salts of the present invention prepared in Examples 4 and 5 (25 mg as the amount of mirabegron) were used to carry out a dissolution test in accordance with the dissolution test, method 2 (paddle method) described in the Japanese Pharmacopoeia. As the test solution, 900 mL of the second fluid (JP2) described in the disintegration test of the Japanese Pharmacopoeia was used. The paddle rotation speed was 50 rpm. The same dissolution test was carried out using the mixtures prepared in Comparative Examples 2 to 5.

[5] = in comparison with the fasted state

SMILES: CCCCCCCCCCCCOS(=O)(=O)O.CCCCCCCCCCCCOS(=O)(=O)O.Nc1nc(CC(=O)Nc2ccc(CCNC[C@H](O)c3ccccc3)cc2)cs1 [Example 1]
- AUC0-10 h ([1]; Fasted): 1027 ± 208 ng·h/mL
- Cmax ([1]; Fasted): 295 ± 166 ng/mL
- AUC0-10 h ([1]; Fed (30 minutes after meal)): 833 ± 122 ng·h/mL
- Cmax ([1]; Fed (30 minutes after meal)): 229 ± 86 ng/mL
- rate of decrease of AUC in the fed state [1, 5]: 19%
- rate of decrease of Cmax in the fed state [1, 5]: 22%
- change in dissolution rate at the maximum ([2]; suspension in xanthan gum solution stored at room temperature for a month): 0.8%
- change in dissolution rate ([2]; suspension in xanthan gum solution stored in a cool place (5° C.) for a month): no change in dissolution rate was observed

SMILES: CCCCCCCCCCCCCCOS(=O)(=O)O.CCCCCCCCCCCCCCOS(=O)(=O)O.Nc1nc(CC(=O)Nc2ccc(CCNC[C@H](O)c3ccccc3)cc2)cs1 [Example 2]
- Drug concentration in supernatant ([3]; 10^−1 mol/L HCl): 19000 ng/mL
- Drug concentration in supernatant ([3]; 10^−3 mol/L HCl): 30000 ng/mL
- Drug concentration in supernatant ([3]; Purified water): 10000 ng/mL

SMILES: CCCCCCCCCCCCCCCCOS(=O)(=O)O.CCCCCCCCCCCCCCCCOS(=O)(=O)O.Nc1nc(CC(=O)Nc2ccc(CCNC[C@H](O)c3ccccc3)cc2)cs1 [Example 3]
- Drug concentration in supernatant ([3]; 10^−1 mol/L HCl): 64000 ng/mL
- Drug concentration in supernatant ([3]; 10^−3 mol/L HCl): 21000 ng/mL
- Drug concentration in supernatant ([3]; Purified water): 4000 ng/mL

SMILES: CCCCCCCCCCCCOS(=O)(=O)O.CCCCCCCCCCCCOS(=O)(=O)O.Nc1nc(CC(=O)Nc2ccc(CCNCC(O)c3ccccc3)cc2)cs1 (stereo not drawn) [Example 4]
- Dissolution rate ([4]; 2 min.): 5.4%
- Dissolution rate ([4]; 15 min.): 14.4%

SMILES: CCCCCCCCCCCCOS(=O)(=O)O.Nc1nc(CC(=O)Nc2ccc(CCNCC(O)c3ccccc3)cc2)cs1 (stereo not drawn) [Example 5]
- Dissolution rate ([4]; 2 min.): 12.8%
- Dissolution rate ([4]; 15 min.): 41.3%

SMILES: Nc1nc(CC(=O)Nc2ccc(CCNC[C@H](O)c3ccccc3)cc2)cs1 [Mirabegron, (R)-2-(2-aminothiazol-4-yl)-4′-{2-[(2-hydroxy-2-phenylethyl)amino]ethyl}acetanilide]
- solubility thermodynamic at 24 h ([3]; 10^-1 mol/L hydrochloric acid, simulated gastric fluid, 10^−1 mol/L HCl): 12900 µg/mL (≈ 32600 µM)
- solubility thermodynamic at 24 h ([3]; 10^-3 mol/L hydrochloric acid, aqueous buffer, 10^−3 mol/L HCl): 501 µg/mL (≈ 1260 µM)
- solubility thermodynamic at 24 h ([3]; Purified water): 116 µg/mL (≈ 293 µM)
